From patent US11149031B2, “Substituted N-(3-fluoropropyl)-pyrrolidine compounds, processes for their preparation and therapeutic uses thereof” (SANOFI, priority 2016, dated 2021)

What was measured:
[1] = target: His6-ERα298-554 WT (ERα ligand-binding domain) (Homo sapiens (Human), UniProt P03372); assay: Test A: biochemical antagonist activity, LanthaScreen TR-FRET ERα coactivator assay, WT; conditions: protocol with 3 nM estradiol; read-out: Antagonism WT IC50
How it was run: (§1)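 His6-ERα LBD (0.5 nM) with 0.5 nM Tb-anti-His6 antibody, 250 nM PGC1a peptide and 3 nM (or 10 nM) estradiol in 100 mM potassium phosphate pH 7.4 with 5 mM DTT, incubated overnight at room temperature with compound.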

ERα in MCF7 cells = ERα in MCF7 cells (Homo sapiens (Human), UniProt P03372); assay: Test C: estrogen receptor degradation activity, ERα in cell western assay in MCF7 cells; type: cell-based; conditions: for DC50: 4 hours post compound addition, ERα in cell western, read-out: Degradation IC50; for % Degradation at 3 μM: 4 hours, relative to fulvestrant
How it was run: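 Steps: seed MCF7 in phenol red-free medium containing 5% charcoal-dextran stripped FBS; next day add compound, final 3–0.000018 μM; after 4 h fix with 5% formalin plus 0.1% Triton; stain ERα overnight, then secondary at 37 °C for 60 min with Syto-64 at 2 μM; scan green and red intensities.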

[2] = target: His6-ERα298-554 Y537S mutant (ERα ligand-binding domain) (Homo sapiens (Human), UniProt P03372, Y537S); assay: Test A: biochemical antagonist activity, LanthaScreen TR-FRET ERα coactivator assay, Y537S mutant; conditions: protocol with 3 nM estradiol; read-out: Antagonism Y537S IC50
How it was run: as §1

[3] = test system: MCF7 cells expressing mutant estrogen receptor Tyr 537 Ser; assay: Test B: cell proliferation/viability assay (CellTiter-Glo) on MCF7 Tyr 537 Ser mutant; type: cell-based; conditions: Homo sapiens, MCF7, 168 h, MCF7 cells expressing ER Tyr 537 Ser mutant, 7 days of compound exposure, read-out: proliferation MCF7 Y537S IC50
How it was run: (§2)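 Compound exposure lasted 7 days (3-0.000001 μM final, 9 points) in phenol red-free MEM with 5% charcoal dextran-stripped FBS. The mutant lines grew without estradiol. Luminescent signal, minus medium-only background, was expressed as percent of untreated cells.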

[4] = test system: MCF7 cells expressing mutant estrogen receptor Asp 538 Gly; assay: Test B: cell proliferation/viability assay (CellTiter-Glo) on MCF7 Asp 538 Gly mutant; type: cell-based; conditions: Homo sapiens, MCF7, 168 h, MCF7 cells expressing ER Asp 538 Gly mutant, 7 days of compound exposure, read-out: proliferation MCF7 D538G IC50
How it was run: as §2

[5] = test system: MCF7 cells (breast tumor cells) WT; assay: Test B: cell proliferation/viability assay (CellTiter-Glo) on MCF7 WT; type: cell-based; conditions: Homo sapiens, MCF7, 168 h, 7 days of compound exposure
How it was run: as §2

[6] = target: His6-ERα298-554 D538G mutant (ERα ligand-binding domain) (Homo sapiens (Human), UniProt P03372, D538G); assay: Test A: biochemical antagonist activity, LanthaScreen TR-FRET ERα coactivator assay, D538G mutant; conditions: protocol with 3 nM estradiol; read-out: Antagonism D538G IC50
How it was run: as §1

Chain of ERα in MCF7 cells (P03372 whole entry): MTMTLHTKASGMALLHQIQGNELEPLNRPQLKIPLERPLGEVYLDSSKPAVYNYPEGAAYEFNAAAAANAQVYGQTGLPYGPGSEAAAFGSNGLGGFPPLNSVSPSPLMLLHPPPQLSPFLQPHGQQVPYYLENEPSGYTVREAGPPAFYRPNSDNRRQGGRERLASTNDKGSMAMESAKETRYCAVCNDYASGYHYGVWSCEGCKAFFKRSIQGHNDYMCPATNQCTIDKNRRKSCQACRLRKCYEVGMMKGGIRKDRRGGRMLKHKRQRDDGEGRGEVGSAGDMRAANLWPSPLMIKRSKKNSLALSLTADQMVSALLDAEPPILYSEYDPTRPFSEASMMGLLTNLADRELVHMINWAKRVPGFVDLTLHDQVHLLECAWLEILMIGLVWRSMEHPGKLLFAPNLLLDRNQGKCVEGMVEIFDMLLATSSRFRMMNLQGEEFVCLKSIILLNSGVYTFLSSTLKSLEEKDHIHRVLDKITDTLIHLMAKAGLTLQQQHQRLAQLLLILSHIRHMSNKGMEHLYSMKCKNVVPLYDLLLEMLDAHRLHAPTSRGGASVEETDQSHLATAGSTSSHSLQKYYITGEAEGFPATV
Chain of His6-ERα298-554 Y537S mutant (ERα ligand-binding domain) (P03372 298-554 Y537S): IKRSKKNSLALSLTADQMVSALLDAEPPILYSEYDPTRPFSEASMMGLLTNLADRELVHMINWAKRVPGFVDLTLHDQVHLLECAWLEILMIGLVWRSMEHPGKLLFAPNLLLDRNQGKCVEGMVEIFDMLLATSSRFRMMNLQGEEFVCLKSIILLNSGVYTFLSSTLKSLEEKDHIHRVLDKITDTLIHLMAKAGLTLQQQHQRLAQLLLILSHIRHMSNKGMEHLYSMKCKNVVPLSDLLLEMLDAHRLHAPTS
Chain of His6-ERα298-554 WT (ERα ligand-binding domain) (P03372 298-554): as the sequence (P03372 298-554 Y537S) above, with S240Y counted along it
Chain of His6-ERα298-554 D538G mutant (ERα ligand-binding domain) (P03372 298-554 D538G): as the sequence (P03372 298-554 Y537S) above, with S240Y, D241G counted along it

SMILES | IC50 [1] [nM] | DC50 (ERα in MCF7 cells) [nM] | % Degradation at 3 μM (ERα in MCF7 cells) [%] | IC50 [2] [nM] | IC50 [3] [nM] | IC50 [4] [nM] | IC50 [5] [nM] | IC50 [6] [nM]
Cc1ccc(C2=C(c3ccc(O[C@H]4CCN(CCCF)C4)cc3)c3ccc(O)c(F)c3OCC2)c(F)c1 [Example 106, 9-fluoro-4-(2-fluoro-4-methyl-phenyl)-5-[4-[(3S)-1-(3-fluoropropyl)pyrrolidin-3-yl]oxyphenyl]-2,3-dihydro-1-benzoxepin-8-ol] | 5 | 0.5 | 90 | 16 | 12 | 3 | 0.7 | 31
Oc1ccc2c(c1F)OCCC(c1ccc3c(c1)CCN3)=C2c1ccc(O[C@H]2CCN(CCCF)C2)cc1 [Example 107, 9-fluoro-5-[4-[(3S)-1-(3-fluoropropyl)pyrrolidin-3-yl]oxyphenyl]-4-indolin-5-yl-2,3-dihydro-1-benzoxepin-8-ol] | 19 | 2 | 82 | 55 | 147 | 33 | 19 | 79
Oc1ccc2c(c1)OCCC(c1cccc3[nH]ccc13)=C2c1ccc(O[C@H]2CCN(CCCF)C2)cc1 [Example 110, 5-[4-[(3S)-1-(3-fluoropropyl)pyrrolidin-3-yl]oxyphenyl]-4-(1H-indol-4-yl)-2,3-dihydro-1-benzoxepin-8-ol] | 5 | 0.2 | 87 | 26 | 45 | 6 | 1 | 39
Oc1ccc2c(c1F)OCCC(c1ccc3[nH]ccc3c1)=C2c1ccc(O[C@H]2CCN(CCCF)C2)cc1 [Example 113, 9-fluoro-5-[4-[(3S)-1-(3-fluoropropyl)pyrrolidin-3-yl]oxyphenyl]-4-(1H-indol-5-yl)-2,3-dihydro-1-benzoxepin-8-ol] | 6 | 0.7 | 80 | 19 | 31 | 14 | 5 | 32
Oc1ccc2c(c1)OCCC(c1ccc3c(c1)NCC3)=C2c1ccc(O[C@H]2CCN(CCCF)C2)cc1 [Example 116, 5-[4-[(3S)-1-(3-fluoropropyl)pyrrolidin-3-yl]oxyphenyl]-4-indolin-6-yl-2,3-dihydro-1-benzoxepin-8-ol] | 31 | 2 | 88 | 86 | 150 | 17 | 6 | 120
CCOc1ccc(C2=C(c3ccc(O[C@H]4CCN(CCCF)C4)cc3)c3ccc(O)cc3OCC2)c(C)c1 [Example 119, 4-(4-ethoxy-2-methyl-phenyl)-5-[4-[(3S)-1-(3-fluoropropyl)pyrrolidin-3-yl]oxyphenyl]-2,3-dihydro-1-benzoxepin-8-ol] | 2 | 1 | 91 | 6 | 5 | 0.5 | 0.6 | 10
Oc1ccc2c(c1)OCCC(c1ccc3occc3c1)=C2c1ccc(O[C@H]2CCN(CCCF)C2)cc1 [Example 120, 4-(benzofuran-5-yl)-5-[4-[(3S)-1-(3-fluoropropyl)pyrrolidin-3-yl]oxyphenyl]-2,3-dihydro-1-benzoxepin-8-ol] | 2 | 0.7 | 91 | 4 | 10 | 2 | 1 | 7
COc1ccc(C2=C(c3ccc(O[C@H]4CCN(CCCF)C4)cc3)c3ccc(O)cc3OCC2)c(F)c1 [Example 121, 4-(2-fluoro-4-methoxy-phenyl)-5-[4-[(3S)-1-(3-fluoropropyl)pyrrolidin-3-yl]oxyphenyl]-2,3-dihydro-1-benzoxepin-8-ol] | 2 | 0.2 | 90 | 13 | 3 | 1 | 0.3 | 27
Oc1ccc2c(c1Cl)OCCC(c1cccc3[nH]ccc13)=C2c1ccc(O[C@H]2CCN(CCCF)C2)cc1 [Example 124, 9-chloro-5-[4-[(3S)-1-(3-fluoropropyl)pyrrolidin-3-yl]oxyphenyl]-4-(1H-indol-4-yl)-2,3-dihydro-1-benzoxepin-8-ol] | 22 | 5 | 76 | 1240 | 165 | 33 | 8 | 849
Cc1c(O)ccc2c1OCCC(c1ccc3cc[nH]c3c1)=C2c1ccc(O[C@H]2CCN(CCCF)C2)cc1 [Example 129, 5-[4-[(3S)-1-(3-fluoropropyl)pyrrolidin-3-yl]oxyphenyl]-4-(1H-indol-6-yl)-9-methyl-2,3-dihydro-1-benzoxepin-8-ol] | 502 | 44 | 75 | 2680 | > 999 | 456 | 245 | > 4000
Cc1ccc(C2=C(c3ccc(O[C@H]4CCN(CCCF)C4)cc3)c3cc(F)c(O)cc3OCC2)c(F)c1 [Example 138, 7-fluoro-4-(2-fluoro-4-methyl-phenyl)-5-[4-[(3S)-1-(3-fluoropropyl)pyrrolidin-3-yl]oxyphenyl]-2,3-dihydro-1-benzoxepin-8-ol] | 18 | 0.5 | 89 | 253 | 51 | 7 | 2 | 360
CC(C)Oc1ccc(C2=C(c3ccc(O[C@H]4CCN(CCCF)C4)cc3)c3ccc(O)cc3OCC2)cc1F [Example 141, 4-(3-fluoro-4-isopropoxy-phenyl)-5-[4-[(3S)-1-(3-fluoropropyl)pyrrolidin-3-yl]oxyphenyl]-2,3-dihydro-1-benzoxepin-8-ol] | 23 | 2 | 87 | 1120 | 22 | 4 | 1 | 1500
Oc1cc2c(cc1F)C(c1ccc(O[C@H]3CCN(CCCF)C3)cc1)=C(c1ccc3c(c1)CCN3)CCO2 [Example 142, 7-fluoro-5-[4-[(3S)-1-(3-fluoropropyl)pyrrolidin-3-yl]oxyphenyl]-4-indolin-5-yl-2,3-dihydro-1-benzoxepin-8-ol] | 41 | 2 | 83 | 1150 | 154 | 34 | 8 | 1820
Oc1cc2c(cc1Cl)C(c1ccc(O[C@H]3CCN(CCCF)C3)cc1)=C(c1ccc3c(c1)CCN3)CCO2 [Example 143, 7-chloro-5-[4-[(3S)-1-(3-fluoropropyl)pyrrolidin-3-yl]oxyphenyl]-4-indolin-5-yl-2,3-dihydro-1-benzoxepin-8-ol] | 464 | 14 | 74 | 4000 | 357 | 63 | 24 | 4000
Oc1cc2c(cc1Cl)C(c1ccc(O[C@H]3CCN(CCCF)C3)cc1)=C(c1ccc3[nH]ccc3c1)CCO2 [Example 144, 7-chloro-5-[4-[(3S)-1-(3-fluoropropyl)pyrrolidin-3-yl]oxyphenyl]-4-(1H-indol-5-yl)-2,3-dihydro-1-benzoxepin-8-ol] | 528 | 18 | 75 | 4000 | 653 | 64 | 38 | 4000
Cc1ccc(C2=C(c3ccc(O[C@H]4CCN(CCCF)C4)cc3)c3cc(Cl)c(O)cc3OCC2)c(F)c1 [Example 145, 7-chloro-4-(2-fluoro-4-methyl-phenyl)-5-[4-[(3S)-1-(3-fluoropropyl)pyrrolidin-3-yl]oxyphenyl]-2,3-dihydro-1-benzoxepin-8-ol] | 256 | 0.5 | 82 | 3270 | 124 | 17 | 9 | 4000
